Data as given in publication PMC5762315, “Inhibition of polo-like kinase 4 (PLK4): a new therapeutic option for rhabdoid tumors and pediatric medulloblastoma” (Oncotarget, 2017).
“And” between values parts separate entries of the source, which are not always exact repeats. Equal entries are not always repeated.

What was measured:
Assay in all cases: biochemical
Type in all cases: biochemical
various kinases [1] = target: T1, various kinases (Homo sapiens, UniProt Q9UL54); conditions: kinase TAOK2 (TAO1); ZLYTE
T1 sequence (Q9UL54 1-1235): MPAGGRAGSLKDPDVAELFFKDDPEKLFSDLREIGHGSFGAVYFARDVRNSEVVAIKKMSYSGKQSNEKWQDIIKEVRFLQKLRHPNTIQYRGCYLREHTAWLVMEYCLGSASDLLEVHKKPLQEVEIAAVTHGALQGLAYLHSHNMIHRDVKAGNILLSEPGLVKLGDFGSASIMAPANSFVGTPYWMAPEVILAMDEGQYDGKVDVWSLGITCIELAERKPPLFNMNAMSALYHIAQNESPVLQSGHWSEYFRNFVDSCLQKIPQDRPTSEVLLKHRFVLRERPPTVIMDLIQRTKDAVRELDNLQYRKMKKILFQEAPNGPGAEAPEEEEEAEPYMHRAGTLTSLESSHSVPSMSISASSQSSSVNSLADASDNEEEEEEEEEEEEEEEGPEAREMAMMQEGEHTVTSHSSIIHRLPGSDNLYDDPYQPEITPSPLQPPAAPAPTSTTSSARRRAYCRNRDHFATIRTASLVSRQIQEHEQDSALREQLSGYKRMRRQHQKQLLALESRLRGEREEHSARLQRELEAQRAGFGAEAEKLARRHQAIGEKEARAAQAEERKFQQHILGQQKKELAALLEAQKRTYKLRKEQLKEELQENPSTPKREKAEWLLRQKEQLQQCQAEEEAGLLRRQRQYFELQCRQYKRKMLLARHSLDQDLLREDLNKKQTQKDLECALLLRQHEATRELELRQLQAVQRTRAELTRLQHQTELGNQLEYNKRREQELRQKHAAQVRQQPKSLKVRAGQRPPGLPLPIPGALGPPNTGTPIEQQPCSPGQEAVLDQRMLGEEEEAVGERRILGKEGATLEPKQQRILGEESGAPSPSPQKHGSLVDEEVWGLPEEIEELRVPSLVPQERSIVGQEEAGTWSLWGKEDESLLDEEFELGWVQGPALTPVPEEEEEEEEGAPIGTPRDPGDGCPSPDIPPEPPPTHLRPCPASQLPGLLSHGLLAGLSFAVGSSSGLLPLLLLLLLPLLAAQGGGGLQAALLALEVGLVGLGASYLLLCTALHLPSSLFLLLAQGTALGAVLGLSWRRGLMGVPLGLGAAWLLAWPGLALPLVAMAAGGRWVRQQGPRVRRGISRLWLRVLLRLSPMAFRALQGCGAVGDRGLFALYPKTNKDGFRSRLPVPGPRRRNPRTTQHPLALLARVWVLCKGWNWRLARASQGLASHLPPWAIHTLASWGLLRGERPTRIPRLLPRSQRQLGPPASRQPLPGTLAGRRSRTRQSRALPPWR

various kinases [2] = target: various kinases (Homo sapiens, UniProt P00533); conditions: EGFR (ErbB1)
various kinases [3] = target: various kinases (Homo sapiens, UniProt P45983); conditions: MAPK8 (JNK1)
various kinases [4] = target: various kinases (Homo sapiens, UniProt Q13882); conditions: kinase PTK6 (Brk); ZLYTE
various kinases [5] = target: various kinases (Homo sapiens, UniProt P25098); conditions: ADRBK1 (GRK2)
various kinases [6] = target: various kinases (Homo sapiens, UniProt P36896); conditions: ACVR1B (ALK4)
various kinases [7] = target: various kinases (Homo sapiens, UniProt Q96SB4); conditions: kinase SRPK1; ZLYTE
various kinases [8] = target: various kinases (Homo sapiens, UniProt Q86V86); conditions: PIM3
various kinases [9] = conditions: for % Inhibition Average / % Inhibition Duplicate #1 / % Inhibition Duplicate #2: ZLYTE
various kinases [10] = target: various kinases (Homo sapiens, UniProt P00519, T315I); conditions: ABL1 T315I
various kinases [11] = target: various kinases (Homo sapiens, UniProt P07949, S891A); conditions: kinase RET S891A; ZLYTE
various kinases [12] = target: various kinases (Homo sapiens, UniProt Q8IU85); conditions: CAMK1D (CaMKI delta)
various kinases [13] = target: various kinases (Homo sapiens, UniProt P54760); conditions: EPHB4
various kinases [14] = target: various kinases (Homo sapiens, UniProt P78368); conditions: CSNK1G2 (CK1 gamma 2)
various kinases [15] = target: various kinases (Homo sapiens, UniProt Q96PY6); conditions: NEK1
various kinases [16] = target: various kinases (Homo sapiens, UniProt P16234, T674I); conditions: PDGFRA T674I
various kinases [17] = target: various kinases (Homo sapiens, UniProt P51451); conditions: BLK

Sequence of various kinases (Homo sapiens, UniProt Q13882) (Q13882 whole entry): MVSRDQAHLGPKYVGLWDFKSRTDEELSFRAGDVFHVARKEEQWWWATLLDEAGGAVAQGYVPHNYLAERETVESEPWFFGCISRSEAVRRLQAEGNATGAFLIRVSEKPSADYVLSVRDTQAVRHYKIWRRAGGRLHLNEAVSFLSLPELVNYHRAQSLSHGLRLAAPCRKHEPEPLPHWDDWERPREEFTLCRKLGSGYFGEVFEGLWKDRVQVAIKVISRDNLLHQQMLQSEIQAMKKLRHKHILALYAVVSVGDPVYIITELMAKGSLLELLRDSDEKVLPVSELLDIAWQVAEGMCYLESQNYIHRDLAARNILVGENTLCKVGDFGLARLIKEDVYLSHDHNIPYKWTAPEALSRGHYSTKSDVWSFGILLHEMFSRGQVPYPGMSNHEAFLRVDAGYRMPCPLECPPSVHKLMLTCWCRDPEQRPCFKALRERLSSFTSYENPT
Sequence of various kinases (Homo sapiens, UniProt Q96SB4) (Q96SB4 whole entry): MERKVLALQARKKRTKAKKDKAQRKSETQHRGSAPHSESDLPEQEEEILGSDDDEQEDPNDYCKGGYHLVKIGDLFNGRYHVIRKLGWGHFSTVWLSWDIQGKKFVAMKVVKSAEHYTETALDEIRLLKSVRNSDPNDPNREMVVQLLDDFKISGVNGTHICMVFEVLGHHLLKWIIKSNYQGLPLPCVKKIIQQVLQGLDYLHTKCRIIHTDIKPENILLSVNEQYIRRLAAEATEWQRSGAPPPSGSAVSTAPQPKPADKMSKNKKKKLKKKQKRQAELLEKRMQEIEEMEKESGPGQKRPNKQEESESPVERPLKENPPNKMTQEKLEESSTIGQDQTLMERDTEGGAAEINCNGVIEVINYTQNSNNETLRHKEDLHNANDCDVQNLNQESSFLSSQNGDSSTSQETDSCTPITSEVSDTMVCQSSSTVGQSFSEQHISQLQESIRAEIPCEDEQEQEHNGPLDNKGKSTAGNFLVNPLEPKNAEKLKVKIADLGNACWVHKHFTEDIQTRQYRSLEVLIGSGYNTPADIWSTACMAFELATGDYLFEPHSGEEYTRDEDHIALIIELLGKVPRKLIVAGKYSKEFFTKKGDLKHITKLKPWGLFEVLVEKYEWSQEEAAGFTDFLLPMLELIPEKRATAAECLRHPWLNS
Sequence of various kinases (Homo sapiens, UniProt P07949, S891A) (P07949 29-1114 S891A): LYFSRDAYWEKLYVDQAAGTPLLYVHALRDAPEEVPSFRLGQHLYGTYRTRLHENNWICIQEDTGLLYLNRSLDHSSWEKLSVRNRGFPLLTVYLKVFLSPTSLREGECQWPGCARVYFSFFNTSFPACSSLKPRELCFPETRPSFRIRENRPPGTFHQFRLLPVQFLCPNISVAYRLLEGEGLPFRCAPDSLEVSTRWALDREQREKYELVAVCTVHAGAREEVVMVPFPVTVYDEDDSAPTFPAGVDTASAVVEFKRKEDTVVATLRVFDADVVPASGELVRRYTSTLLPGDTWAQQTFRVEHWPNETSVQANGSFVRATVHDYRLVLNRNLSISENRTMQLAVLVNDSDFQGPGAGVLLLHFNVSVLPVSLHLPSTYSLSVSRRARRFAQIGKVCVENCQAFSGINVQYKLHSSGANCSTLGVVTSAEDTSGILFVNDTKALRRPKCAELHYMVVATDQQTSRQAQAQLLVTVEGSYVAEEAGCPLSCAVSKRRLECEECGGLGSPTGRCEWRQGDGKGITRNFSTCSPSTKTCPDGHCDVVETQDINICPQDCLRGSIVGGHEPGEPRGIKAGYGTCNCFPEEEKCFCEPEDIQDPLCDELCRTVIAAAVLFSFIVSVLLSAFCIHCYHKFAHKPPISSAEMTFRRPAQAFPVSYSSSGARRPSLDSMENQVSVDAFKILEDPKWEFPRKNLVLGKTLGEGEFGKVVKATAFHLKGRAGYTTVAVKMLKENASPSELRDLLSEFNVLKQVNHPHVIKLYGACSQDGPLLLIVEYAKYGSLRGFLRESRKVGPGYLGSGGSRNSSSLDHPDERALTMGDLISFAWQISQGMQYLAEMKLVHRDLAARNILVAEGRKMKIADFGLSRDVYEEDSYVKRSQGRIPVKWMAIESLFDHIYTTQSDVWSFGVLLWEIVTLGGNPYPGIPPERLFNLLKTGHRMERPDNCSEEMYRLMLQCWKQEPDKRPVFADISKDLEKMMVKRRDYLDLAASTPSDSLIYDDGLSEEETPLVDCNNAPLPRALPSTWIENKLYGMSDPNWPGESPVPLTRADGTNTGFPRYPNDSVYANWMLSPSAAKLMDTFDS
Sequence of various kinases (Homo sapiens, UniProt P00533) (P00533 25-1210): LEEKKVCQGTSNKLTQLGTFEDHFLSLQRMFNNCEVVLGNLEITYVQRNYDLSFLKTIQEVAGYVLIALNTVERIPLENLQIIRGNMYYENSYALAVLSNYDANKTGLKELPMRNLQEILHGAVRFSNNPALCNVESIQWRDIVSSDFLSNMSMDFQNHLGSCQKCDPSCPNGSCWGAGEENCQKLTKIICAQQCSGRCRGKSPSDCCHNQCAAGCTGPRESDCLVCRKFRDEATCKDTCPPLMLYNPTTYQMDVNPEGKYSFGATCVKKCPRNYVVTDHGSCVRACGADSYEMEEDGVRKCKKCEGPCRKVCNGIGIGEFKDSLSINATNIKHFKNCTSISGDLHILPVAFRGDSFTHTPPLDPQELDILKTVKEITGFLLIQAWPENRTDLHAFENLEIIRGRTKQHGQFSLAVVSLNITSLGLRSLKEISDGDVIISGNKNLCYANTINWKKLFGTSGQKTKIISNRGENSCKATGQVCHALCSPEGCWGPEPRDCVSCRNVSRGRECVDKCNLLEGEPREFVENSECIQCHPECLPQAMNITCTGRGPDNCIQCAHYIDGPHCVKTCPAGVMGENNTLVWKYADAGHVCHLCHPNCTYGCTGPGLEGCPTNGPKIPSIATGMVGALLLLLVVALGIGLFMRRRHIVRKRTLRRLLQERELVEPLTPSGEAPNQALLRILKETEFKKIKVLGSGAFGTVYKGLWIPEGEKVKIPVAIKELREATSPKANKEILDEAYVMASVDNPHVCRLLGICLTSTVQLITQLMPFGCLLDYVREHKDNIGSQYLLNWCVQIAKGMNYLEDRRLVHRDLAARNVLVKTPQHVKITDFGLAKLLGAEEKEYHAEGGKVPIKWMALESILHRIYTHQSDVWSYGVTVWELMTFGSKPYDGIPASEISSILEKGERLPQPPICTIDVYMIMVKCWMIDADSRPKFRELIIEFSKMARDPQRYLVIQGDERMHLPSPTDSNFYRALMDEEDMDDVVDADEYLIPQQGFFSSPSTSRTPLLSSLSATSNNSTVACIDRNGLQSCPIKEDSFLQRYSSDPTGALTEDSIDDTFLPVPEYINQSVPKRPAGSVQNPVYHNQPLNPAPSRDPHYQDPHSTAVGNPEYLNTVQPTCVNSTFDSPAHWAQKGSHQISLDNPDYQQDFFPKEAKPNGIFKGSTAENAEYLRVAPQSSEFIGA
Sequence of various kinases (Homo sapiens, UniProt P45983) (P45983 whole entry): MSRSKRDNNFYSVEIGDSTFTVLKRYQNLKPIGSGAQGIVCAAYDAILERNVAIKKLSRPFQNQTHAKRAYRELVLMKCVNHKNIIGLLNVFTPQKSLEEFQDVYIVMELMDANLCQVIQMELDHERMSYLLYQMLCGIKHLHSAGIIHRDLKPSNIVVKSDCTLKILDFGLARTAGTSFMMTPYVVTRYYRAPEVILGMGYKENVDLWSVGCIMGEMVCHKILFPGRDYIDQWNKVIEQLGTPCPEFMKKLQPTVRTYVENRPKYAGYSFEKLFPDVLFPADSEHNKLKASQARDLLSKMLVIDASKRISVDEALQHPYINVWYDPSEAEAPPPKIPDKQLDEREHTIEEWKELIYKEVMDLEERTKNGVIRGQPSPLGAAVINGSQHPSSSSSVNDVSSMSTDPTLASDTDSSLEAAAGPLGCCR
Sequence of various kinases (Homo sapiens, UniProt Q96PY6) (Q96PY6 whole entry): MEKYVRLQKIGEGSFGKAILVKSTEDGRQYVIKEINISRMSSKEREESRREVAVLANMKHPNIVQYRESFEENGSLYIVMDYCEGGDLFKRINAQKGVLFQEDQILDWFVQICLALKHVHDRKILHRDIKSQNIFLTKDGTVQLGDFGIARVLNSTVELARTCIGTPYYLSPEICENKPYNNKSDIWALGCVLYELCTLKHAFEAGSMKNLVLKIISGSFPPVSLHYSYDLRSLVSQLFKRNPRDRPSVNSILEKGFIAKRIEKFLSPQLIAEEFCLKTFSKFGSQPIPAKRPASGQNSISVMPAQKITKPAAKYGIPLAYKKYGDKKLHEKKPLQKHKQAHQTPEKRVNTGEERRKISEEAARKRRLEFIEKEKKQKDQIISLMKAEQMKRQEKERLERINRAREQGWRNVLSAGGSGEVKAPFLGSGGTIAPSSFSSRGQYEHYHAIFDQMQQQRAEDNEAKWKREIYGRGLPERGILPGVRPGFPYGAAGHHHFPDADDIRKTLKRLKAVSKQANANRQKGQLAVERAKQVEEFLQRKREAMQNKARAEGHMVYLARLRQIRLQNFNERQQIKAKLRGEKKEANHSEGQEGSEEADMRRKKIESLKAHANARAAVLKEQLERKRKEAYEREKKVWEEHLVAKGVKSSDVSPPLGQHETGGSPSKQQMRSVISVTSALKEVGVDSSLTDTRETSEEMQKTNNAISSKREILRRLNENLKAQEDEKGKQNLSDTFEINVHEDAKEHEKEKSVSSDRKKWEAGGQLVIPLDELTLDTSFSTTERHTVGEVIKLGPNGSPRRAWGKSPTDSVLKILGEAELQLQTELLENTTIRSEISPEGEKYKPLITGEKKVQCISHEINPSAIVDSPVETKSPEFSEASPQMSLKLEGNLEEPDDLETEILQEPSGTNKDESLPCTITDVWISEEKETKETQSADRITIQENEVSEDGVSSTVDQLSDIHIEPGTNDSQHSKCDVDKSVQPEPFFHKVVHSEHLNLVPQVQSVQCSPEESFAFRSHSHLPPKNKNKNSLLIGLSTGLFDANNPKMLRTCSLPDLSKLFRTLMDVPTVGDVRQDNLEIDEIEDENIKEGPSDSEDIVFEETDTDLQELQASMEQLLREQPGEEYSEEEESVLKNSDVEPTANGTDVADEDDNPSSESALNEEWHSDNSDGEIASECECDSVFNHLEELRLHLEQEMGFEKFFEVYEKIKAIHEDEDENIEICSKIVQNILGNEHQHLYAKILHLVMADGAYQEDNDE

COc1ccc2c(c1)[C@]1(C[C@H]1c1ccc3c(/C=C/c4ccc(CN5C[C@@H](C)O[C@@H](C)C5)cc4)n[nH]c3c1)C(=O)N2 [CFI-400945]
% Inhibition Average (various kinases [1]): 4%
% Inhibition Duplicate #1 (various kinases [1]): 3%
% Inhibition Duplicate #2 (various kinases [1]): 5%
% Inhibition (various kinases [2]): 1% and 7%
% Inhibition (various kinases [3]): -3% and -1%
% Inhibition Average (various kinases [4]): 4%
% Inhibition Duplicate #1 (various kinases [4]): 5%
% Inhibition Duplicate #2 (various kinases [4]): 3%
% Inhibition (various kinases [5]): 5% and 4%
% Inhibition (various kinases [6]): -1% and -8%
% Inhibition Average (various kinases [7]): 5%
% Inhibition Duplicate #1 (various kinases [7]): 6%
% Inhibition Duplicate #2 (various kinases [7]): 3%
% Inhibition (various kinases [8]): -1% and 0%
% Inhibition (various kinases [9]; LYN B): 7% and 9%
% Inhibition Average (various kinases [9]; kinase PRKCB2 (PKC beta II)): 13%
% Inhibition Duplicate #1 (various kinases [9]; kinase PRKCB2 (PKC beta II)): 12%
% Inhibition Duplicate #2 (various kinases [9]; kinase PRKCB2 (PKC beta II)): 14%
% Inhibition Average (various kinases [9]; kinase SRC N1): 14%
% Inhibition Duplicate #1 (various kinases [9]; kinase SRC N1): 14%
% Inhibition Duplicate #2 (various kinases [9]; kinase SRC N1): 14%
% Inhibition (various kinases [10]): 83% and 78%
IC50 (various kinases [10]): 27.2 nM
% Inhibition Average (various kinases [11]): 55%
% Inhibition Duplicate #1 (various kinases [11]): 59%
% Inhibition Duplicate #2 (various kinases [11]): 52%
% Inhibition (various kinases [12]): -5% and 0%
% Inhibition (various kinases [13]): 5% and 8%
% Inhibition (various kinases [14]): 1% and 3%
% Inhibition (various kinases [15]): 7% and 2%
% Inhibition (various kinases [16]): 1% and 2%
% Inhibition (various kinases [17]): 9% and 14%
